# Activity calls are given as the source filed them. No cut-off for these calls is given here.
# Experiments:
# Streptococcus pneumoniae [1] = assay: Antibacterial activity against Streptococcus pneumoniae TIGR4 assessed as inhibition of bacterial growth incubated for 24 hrs by agar dilution method; format: functional
# Bacillus subtilis [2] = assay: Antibacterial activity against Bacillus subtilis 168 assessed as inhibition of bacterial growth incubated for 6 hrs by agar dilution method; format: functional
# Bacillus subtilis [3] = assay: Antibacterial activity against Bacillus subtilis 168 assessed as inhibition of bacterial growth at 10 uM incubated for 6 hrs by agar plate assay; format: functional, organism-based
# Streptococcus pneumoniae [4] = assay: Antibacterial activity against Streptococcus pneumoniae TIGR4 assessed as inhibition of bacterial growth at 10 uM incubated for 24 hrs by agar plate assay; format: functional
# Acinetobacter baumannii = assay: Antibacterial activity against Acinetobacter baumannii ATCC 19606 assessed as inhibition of bacterial growth incubated for 18 hrs by microbroth dilution method; format: functional
# Staphylococcus aureus [5] = assay: Antibacterial activity against Staphylococcus aureus assessed as inhibition of bacterial growth incubated for 16 to 24 hrs by CLSI based microdilution assay; format: functional; details: time 16-24 hrs
# Staphylococcus aureus [6] = assay: Antibacterial activity against Staphylococcus aureus; format: functional
# Bacillus subtilis [7] = assay: Antibacterial activity against Bacillus subtilis; format: functional
# [8] = target: T1, Cell division protein FtsZ (Streptococcus pneumoniae serotype 2 (strain D39 / NCTC 7466)) (UniProt A0A0H2ZNE0); assay: Inhibition of Streptococcus pneumoniae FtsZ polymerization at 5 to 40 uM pretreated for 20 mins followed by GTP addition and measured for 20 mins by tryptophan fluorescence based spectrofluorometric analysis; details: dose 5-40 µM, time 40.0 min
# T1 sequence (whole entry): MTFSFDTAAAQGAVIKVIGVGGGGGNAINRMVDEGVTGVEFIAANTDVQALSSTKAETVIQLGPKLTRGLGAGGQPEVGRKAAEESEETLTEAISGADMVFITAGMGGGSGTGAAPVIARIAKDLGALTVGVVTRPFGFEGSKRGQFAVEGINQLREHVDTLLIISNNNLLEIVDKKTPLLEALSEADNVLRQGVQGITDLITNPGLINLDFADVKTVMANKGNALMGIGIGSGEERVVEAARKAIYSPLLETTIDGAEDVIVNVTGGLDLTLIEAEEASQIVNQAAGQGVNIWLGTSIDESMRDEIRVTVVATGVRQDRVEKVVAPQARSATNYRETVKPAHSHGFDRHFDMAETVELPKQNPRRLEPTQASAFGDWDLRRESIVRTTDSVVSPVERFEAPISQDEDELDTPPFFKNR
# [9] = target: T1, Cell division protein FtsZ (Streptococcus pneumoniae serotype 2 (strain D39 / NCTC 7466)); assay: Inhibition of Streptococcus pneumoniae FtsZ assessed as increase in GTPase activity by measuring increase in inorganic phosphate release at >20 uM pretreated for 20 mins followed by GTP addition and measured after 10 mins by malachite green assay based UV-Vis spectrophometry; details: time 30.0 min
# [10] = target: T1, Cell division protein FtsZ (Streptococcus pneumoniae serotype 2 (strain D39 / NCTC 7466)); assay: Inhibition of Streptococcus pneumoniae FtsZ polymerization assessed as length of polymers at 40 uM preincubated for 20 mins followed by GTP addition for 200 secs and later incubated on copper-TEM grid for 5 mins by transmission electron microscopy (reference value: 61 +/-26 nm); details: time 1700.0 sec
# [11] = target: T1, Cell division protein FtsZ (Streptococcus pneumoniae serotype 2 (strain D39 / NCTC 7466)); assay: Inhibition of Streptococcus pneumoniae FtsZ assessed as inhibition of rate of polymerization at 40 uM pretreated for 20 mins followed by GTP addition and measured for 20 mins by tryptophan fluorescence based spectrofluorometric analysis; details: time 40.0 min
# Streptococcus pneumoniae [12] = assay: Induction of DNA nucleoid segregation in Streptococcus pneumoniae at 40 uM incubated for 30 mins by DAPI staining based immunostaining analysis; format: functional, organism-based
# Escherichia coli = assay: Antibacterial activity against Escherichia coli K12 assessed as inhibition of bacterial growth at 10 to 20 uM incubated for 4 hrs; format: functional, organism-based; details: dose 10-20 µM
# Streptococcus pneumoniae [13] = assay: Antibacterial activity against Streptococcus pneumoniae TIGR4 assessed as inhibition of bacterial proliferation incubated for 24 hrs by CLSI based analysis; format: functional, organism-based
# [14] = target: T1, Cell division protein FtsZ (Streptococcus pneumoniae serotype 2 (strain D39 / NCTC 7466)); assay: Inhibition of Streptococcus pneumoniae FtsZ assessed as rate of polymerization at 40 uM pretreated for 20 mins followed by GTP addition and measured for 20 mins by tryptophan fluorescence based spectrofluorometric analysis (reference value: 0.19 +/-0.02 au/s); details: time 40.0 min
# Vibrio cholerae = assay: Antibacterial activity against Vibrio cholerae assessed as inhibition of bacterial growth at 10 to 20 uM incubated for 4 hrs; format: functional, organism-based; details: dose 10-20 µM
# Streptococcus pneumoniae [15] = assay: Bactericidal activity against Streptococcus pneumoniae TIGR4 assessed as induction of cell death by measuring proportion of PI-stained bacteria at 20 ug/ml incubated for 12 hrs by propidium iodide staining based confocal microscopy (reference value: 2%); format: functional; details: dose 20 µg/ml
# Bacillus subtilis [16] = assay: Antibacterial activity against Bacillus subtilis 168 assessed as inhibition of bacterial growth at 10 to 20 uM incubated for 4 hrs; format: functional, organism-based; details: dose 10-20 µM
# [17] = target: T1, Cell division protein FtsZ (Streptococcus pneumoniae serotype 2 (strain D39 / NCTC 7466)); assay: Inhibition of Streptococcus pneumoniae FtsZ polymerization assessed as very short and thin polymers at 40 uM preincubated for 20 mins followed by GTP addition for 200 secs and later incubated on copper-TEM grid for 5 mins by transmission electron microscopy; details: time 1700.0 sec
# [18] = Antiproliferative activity against human HeLa cells assessed as inhibition of cell growth incubated for 24 hrs by SRB assay; format: toxicity, cell-based
# [19] = target: T1, Cell division protein FtsZ (Streptococcus pneumoniae serotype 2 (strain D39 / NCTC 7466)); assay: Inhibition of FtsZ in Streptococcus pneumoniae assessed as propotion of cells with intact Z-ring at 40 uM incubated for 30 mins by DAPI staining based immunostaining analysis (reference value: 92%); parameters: scale not given: the % may be the effect or the level left
# Streptococcus pneumoniae [20] = assay: Induction of membrane disruption in Streptococcus pneumoniae TIGR4 at 40 uM incubated for 30 mins by FM4-64 live cell staining based confocal microscopy; format: functional, organism-based
# Klebsiella pneumoniae = assay: Antibacterial activity against Klebsiella pneumoniae assessed as inhibition of bacterial growth at 10 to 20 uM incubated for 4 hrs; format: functional, organism-based; details: dose 10-20 µM
# [21] = target: T1, Cell division protein FtsZ (Streptococcus pneumoniae serotype 2 (strain D39 / NCTC 7466)); assay: Inhibition of FtsZ in Streptococcus pneumoniae assessed as improper distribution of FtsZ throughout the cells at 40 uM incubated for 30 mins by DAPI staining based immunostaining analysis
# [22] = target: T1, Cell division protein FtsZ (Streptococcus pneumoniae serotype 2 (strain D39 / NCTC 7466)); assay: Inhibition of Streptococcus pneumoniae FtsZ assessed as increase in GTPase activity by measuring increase in inorganic phosphate release upto 20 uM pretreated for 20 mins followed by GTP addition and measured after 10 mins by malachite green assay based UV-Vis spectrophometry; details: time 30.0 min
# [23] = target: T1, Cell division protein FtsZ (Streptococcus pneumoniae serotype 2 (strain D39 / NCTC 7466)); assay: Inhibition of Streptococcus pneumoniae FtsZ polymerization at 20 uM preincubated for 20 mins followed by GTP addition for 3 mins by atomic force microscopy; details: time 23.0 min
# [24] = target: T1, Cell division protein FtsZ (Streptococcus pneumoniae serotype 2 (strain D39 / NCTC 7466)); assay: Inhibition of Streptococcus pneumoniae FtsZ assessed as inhibition of extent of polymerization at 30 uM pretreated for 20 mins followed by GTP addition and measured for 20 mins by light scattering based analysis; details: time 40.0 min
# [25] = target: T1, Cell division protein FtsZ (Streptococcus pneumoniae serotype 2 (strain D39 / NCTC 7466)); assay: Inhibition of Streptococcus pneumoniae FtsZ assessed as inhibition of extent of polymerization at 40 uM pretreated for 20 mins followed by GTP addition and measured for 20 mins by light scattering based analysis; details: time 40.0 min
# [26] = target: T1, Cell division protein FtsZ (Streptococcus pneumoniae serotype 2 (strain D39 / NCTC 7466)); assay: Inhibition of Streptococcus pneumoniae FtsZ assessed as time required to start of polymerization at 40 uM pretreated for 20 mins followed by GTP addition and measured for 20 mins by tryptophan fluorescence based spectrofluorometric analysis (reference value: 37 +/-18 sec); details: time 40.0 min
# Streptococcus pneumoniae [27] = assay: Bactericidal activity against Streptococcus pneumoniae TIGR4 assessed as induction of cell death by measuring proportion of PI-stained bacteria at 40 ug/ml incubated for 12 hrs by propidium iodide staining based confocal microscopy (reference value: 2%); format: functional; details: dose 40 µg/ml
# Staphylococcus aureus [28] = assay: Antibacterial activity against Staphylococcus aureus assessed as inhibition of bacterial growth at 10 to 20 uM incubated for 4 hrs; format: functional, organism-based; details: dose 10-20 µM
# Streptococcus pyogenes = assay: Antibacterial activity against Streptococcus pyogenes assessed as inhibition of bacterial growth at 10 to 20 uM incubated for 20 hrs; format: functional, organism-based; details: dose 10-20 µM
# [29] = test system: Mycobacterium tuberculosis; assay: Antibacterial activity against Mycobacterium tuberculosis H37; format: functional
structure (smiles),measurement,setting,value
O=C(CCc1ccc(O)cc1)C1=C(O)C(Cc2ccc(O)cc2)CCC1 (stereo unspecified),MIC,Streptococcus pneumoniae [1],~0.7 µg/mL
same,MIC,Bacillus subtilis [2],~3.8 µg/mL
CCOC(=O)c1c(CSc2ccc(Br)cc2)nc2ccc(Br)cn12,Activity,Bacillus subtilis [3],inactive
same,inhibition at 10 µM,Streptococcus pneumoniae [4],0%
CCOC(=O)c1c(CSc2ccccc2)nc2ccc(Br)cn12,Activity,Bacillus subtilis [3],inactive
same,inhibition at 10 µM,Streptococcus pneumoniae [4],25%
CCOC(=O)c1c(CSc2ccc(Cl)cc2)nc2ccc(Br)cn12,Activity,Bacillus subtilis [3],inactive
same,inhibition at 10 µM,Streptococcus pneumoniae [4],17%
CCOC(=O)c1c(CSc2ccncc2)nc2ccc(Br)cn12,Activity,Bacillus subtilis [3],inactive
same,inhibition at 10 µM,Streptococcus pneumoniae [4],31%
Cc1nc2ccccc2n1C(=O)/C=C/c1ccc(Br)cc1,MIC,Acinetobacter baumannii,32 µg/mL
NC(=O)c1c(F)ccc(OCc2nc3cc(C(F)(F)F)cnc3s2)c1F,MIC,Staphylococcus aureus [5],2 µg/mL
CCOC(=O)c1c(CSc2ccc([N+](=O)[O-])cc2)nc2ccc(Br)cn12,Activity,Bacillus subtilis [3],inactive
same,inhibition at 10 µM,Streptococcus pneumoniae [4],0%
NC(=O)c1c(F)ccc(OCc2nc3cc(Cl)cnc3s2)c1F,MIC,Staphylococcus aureus [6],0.5 µg/mL
same,MIC,Bacillus subtilis [7],1 µg/mL
CCOC(=O)c1c(CSc2ccccc2Br)nc2ccc(Br)cn12,Activity,Bacillus subtilis [3],inactive
same,inhibition at 10 µM,Streptococcus pneumoniae [4],0%
CC1=CC(=O)c2ccccc2C1=O [MENADIONE],inhibition at 10 µM,Streptococcus pneumoniae [4],100%
CCOC(=O)c1c(CSc2ccc3ccccc3c2)nc2ccc(Br)cn12,inhibition,[8],Active
same,Activity,Bacillus subtilis [3],inactive
same,inhibition at 10 µM,Streptococcus pneumoniae [4],54%
same,inhibition,[9],inactive
CCOC(=O)c1c(CSc2ccccc2OC)nc2ccc(Br)cn12,Activity,Bacillus subtilis [3],inactive
same,inhibition at 10 µM,Streptococcus pneumoniae [4],17%
CCOC(=O)c1c(CSc2ccc(OC)cc2)nc2ccc(Br)cn12,Activity,[10],13 nm
same,inhibition,[11],75%
same,Activity,Streptococcus pneumoniae [12],inactive
same,inhibition,[8],Active
same,Activity,Escherichia coli,inactive
same,IC50,"Streptococcus pneumoniae [13]; TIGR4, 24 h",17 µM
same,MIC,"Streptococcus pneumoniae [13]; TIGR4, time 24 hrs",20 µg/mL
same,INH,[14],0.05 AU/sec
same,Activity,Bacillus subtilis [3],inactive
same,Activity,Vibrio cholerae,inactive
same,Activity,Streptococcus pneumoniae [15],17%
same,Activity,Bacillus subtilis [16],inactive
same,inhibition,[17],Active
same,IC50 at 24 h,[18],41 µM
same,Activity,[19],46%
same,Activity,Streptococcus pneumoniae [20],inactive
same,Activity,Klebsiella pneumoniae,inactive
same,inhibition,[21],54%
same,inhibition,[22],Active
same,inhibition,[23],Active
same,inhibition,[24],34%
same,inhibition at 10 µM,Streptococcus pneumoniae [4],67%
same,inhibition,[25],59%
same,TIME,[26],0.0644 h
same,Activity,Streptococcus pneumoniae [27],28%
same,Activity,Staphylococcus aureus [28],inactive
same,Activity,Streptococcus pyogenes,Active
CCOC(=O)c1c(CSc2nc3ccccc3[nH]2)nc2ccc(Br)cn12,Activity,Bacillus subtilis [3],inactive
same,inhibition at 10 µM,Streptococcus pneumoniae [4],37%
CC(NC(=O)c1nc2ccccc2n1-c1ccccc1)c1ccccc1 (stereo unspecified),MIC,[29],0.78 µg/mL
same,MIC,Bacillus subtilis [7],1.56 µg/mL

# Reference: ChEMBL document CHEMBL5500325, “Identification of ethyl-6-bromo-2((phenylthio)methyl)imidazo[1,2-a]pyridine-3-carboxylate as a narrow spectrum inhibitor of Streptococcus pneumoniae and its FtsZ” (Eur J Med Chem, 2024)
